Values joined by “and” are separate entries in the source; they are usually repeats but may differ in a detail not shown here. Identical values can stand only once.

For the test, the system named is 556581-035-R-J1-PDC spheroids with HUVEC/MSC, viability. Description: Anticancer human tumor 556581-035-R-J1-PDC patient-derived ovarian carcinoma cell line growth inhibition [IpAb]. The settings on record: for viability, T/C: stronger effect = lower value. The essentials:
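Spheroids of 60% malignant cells, 25% HUVEC and 15% MSC were exposed to targeted agents combined with ipatasertib or abemaciclib. Doses started at or near clinical Cmax (10 microM when unknown) and fell in half-log steps.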

The mark [1] stands for this setting: curve of first compound, second compound 0.1 µM.
Setting [2] is: curve of first compound, second compound 0.316 µM.
[3] abbreviates: curve of first compound, second compound 1 µM.
Where [4] appears, read: curve of first compound, second compound 3.16 µM.
Setting [5] is: curve of first compound, second compound 10 µM.
[6] abbreviates: second compound 0.1 µM, first compound 0.0316 µM.
[7] abbreviates: second compound 0.1 µM, first compound 0.1 µM.
Setting [8] is: second compound 0.1 µM, first compound 0.316 µM.
Where [9] appears, read: second compound 0.1 µM, first compound 1 µM.
[10] abbreviates: second compound 0.316 µM, first compound 0.0316 µM.
Setting [11] is: second compound 0.316 µM, first compound 0.1 µM.
[12] abbreviates: second compound 0.316 µM, first compound 0.316 µM.
Setting [13] is: second compound 0.316 µM, first compound 1 µM.
The mark [14] stands for this setting: second compound 1 µM, first compound 0.0316 µM.
Setting [15] is: second compound 1 µM, first compound 0.1 µM.
Setting [16] is: second compound 1 µM, first compound 0.316 µM.
Setting [17] is: second compound 1 µM, first compound 1 µM.
The mark [18] stands for this setting: second compound 3.16 µM, first compound 0.0316 µM.
Where [19] appears, read: second compound 3.16 µM, first compound 0.1 µM.
Where [20] appears, read: second compound 3.16 µM, first compound 0.316 µM.
Where [21] appears, read: second compound 3.16 µM, first compound 1 µM.
[22] abbreviates: second compound 10 µM, first compound 0.0316 µM.
The mark [23] stands for this setting: second compound 10 µM, first compound 0.1 µM.
Where [24] appears, read: second compound 10 µM, first compound 0.316 µM.
Where [25] appears, read: second compound 10 µM, first compound 1 µM.
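Also: spheroids exposed to compounds for 7 days before readout.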

The term IC50 denotes the midpoint of a concentration-inhibition curve. As usually defined, the viability, T/C is the result in the treated group divided by that in the control group, in per cent. Take `CC(=O)c1c(C)c2cnc(Nc3ccc(N4CCNCC4)cn3)nc2n(C2CCCC2)c1=O` + CC(C)NCC(C(=O)N1CCN(c2ncnc3c2C(C)CC3O)CC1)c1ccc(Cl)cc1: the half-maximal inhibitory concentration (IC50) runs as follows: under setting [1], more than 0.3 µM; under setting [2], more than 0.3 µM; under setting [3], more than 0.3 µM; under setting [4], more than 0.3 µM; under setting [5], less than 0.000949 µM. Moreover, the viability, T/C runs as follows: (second compound 0.1 µM, first compound 0.000949 µM) 98.2%; (second compound 0.1 µM, first compound 0.003 µM) 115%; (second compound 0.1 µM, first compound 0.00949 µM) 95.5%; (second compound 0.1 µM, first compound 0.03 µM) 96%; (second compound 0.1 µM, first compound 0.0949 µM) 99%; (second compound 0.1 µM, first compound 0.3 µM) 87.2%. Further, the viability, T/C is 77.8% (second compound 0.316 µM, first compound 0.000949 µM); 90.4% (second compound 0.316 µM, first compound 0.003 µM); 85.9% (second compound 0.316 µM, first compound 0.00949 µM); 76% (second compound 0.316 µM, first compound 0.03 µM); 85.3% (second compound 0.316 µM, first compound 0.0949 µM); 82.4% (second compound 0.316 µM, first compound 0.3 µM). In addition, the viability, T/C reads like this: (second compound 1 µM, first compound 0.000949 µM) 59.9%; (second compound 1 µM, first compound 0.003 µM) 65.7%; (second compound 1 µM, first compound 0.00949 µM) 68.1%; (second compound 1 µM, first compound 0.03 µM) 56.4%; (second compound 1 µM, first compound 0.0949 µM) 65.3%; (second compound 1 µM, first compound 0.3 µM) 63.5%. Further, the viability, T/C is 57.8% (second compound 3.16 µM, first compound 0.000949 µM); 61.7% (second compound 3.16 µM, first compound 0.003 µM); 49.9% (second compound 3.16 µM, first compound 0.00949 µM); 55.4% (second compound 3.16 µM, first compound 0.03 µM); 58.1% (second compound 3.16 µM, first compound 0.0949 µM); 58% (second compound 3.16 µM, first compound 0.3 µM). The viability, T/C (second compound 10 µM, first compound 0.000949 µM) is 47.9%; the viability, T/C (second compound 10 µM, first compound 0.003 µM) is 47.4%; the viability, T/C (second compound 10 µM, first compound 0.00949 µM) was 48.6%; the viability, T/C (second compound 10 µM, first compound 0.03 µM) is 49.6%; the viability, T/C (second compound 10 µM, first compound 0.0949 µM) was 45.8%; the viability, T/C (second compound 10 µM, first compound 0.3 µM) is 48.4%.

For `COc1c(OCCCN2CCOCC2)ccc2c3n(c(=NC(=O)c4cnc(N)nc4)nc12)CCN3` + CC(C)NCC(C(=O)N1CCN(c2ncnc3c2C(C)CC3O)CC1)c1ccc(Cl)cc1, the half-maximal inhibitory concentration (IC50) by setting is: under setting [1], 0.0254 µM; under setting [2], 0.0316 µM; under setting [3], 0.019 µM; under setting [4], 0.0139 µM; under setting [5], 0.00333 µM. The viability, T/C runs as follows: (second compound 0.1 µM, first compound 0.00316 µM) 73.8%; (second compound 0.1 µM, first compound 0.01 µM) 61.1%; under setting [6], 45.6%; under setting [7], 36.1%; under setting [8], 16.5%; under setting [9], 3.99%. In addition, the viability, T/C by setting is: (second compound 0.316 µM, first compound 0.00316 µM) 91.6%; (second compound 0.316 µM, first compound 0.01 µM) 62.8%; under setting [10], 55.1%; under setting [11], 31.5%; under setting [12], 15.6%; under setting [13], 2.82%. Besides, the viability, T/C is 64.1% (second compound 1 µM, first compound 0.00316 µM); 57% (second compound 1 µM, first compound 0.01 µM); 42% under setting [14]; 36.3% under setting [15]; 14.6% under setting [16]; 2.64% under setting [17]. For the same compound, the viability, T/C reads like this: (second compound 3.16 µM, first compound 0.00316 µM) 50.2%; (second compound 3.16 µM, first compound 0.01 µM) 45.2%; under setting [18], 55.3%; under setting [19], 39.3%; under setting [20], 11.8%; under setting [21], 5.41%. The viability, T/C by setting is: (second compound 10 µM, first compound 0.00316 µM) 52%; (second compound 10 µM, first compound 0.01 µM) 42.8%; under setting [22], 38.5%; under setting [23], 33.6%; under setting [24], 14.7%; under setting [25], 5.1%.

As to `CCCS(=O)(=O)Nc1ccc(F)c(C(=O)c2c[nH]c3ncc(-c4ccc(Cl)cc4)cc23)c1F`, the viability, T/C runs as follows: (compound 0.0316 µM) 93.4% and 104%; (compound 0.1 µM) 103% and 99.8%; (compound 0.316 µM) 105% and 108%; (compound 1 µM) 92.9% and 98.8%; (compound 3.16 µM) 110% and 104%; (compound 10 µM) 75.7% and 78.5%. Also, the IC50 (curve of compound) was more than 10 µM.

With `CC1(C)CCC(CN2CCN(c3ccc(C(=O)NS(=O)(=O)c4ccc(NCC5CCOCC5)c([N+](=O)[O-])c4)c(Oc4cnc5[nH]ccc5c4)c3)CC2)=C(c2ccc(Cl)cc2)C1`, the viability, T/C by setting is: (compound 0.0316 µM) 105% and 99.1%; (compound 0.1 µM) 103% and 102%; (compound 0.316 µM) 95.2% and 99%; (compound 1 µM) 94% and 108%; (compound 3.16 µM) 105% and 97.4%; (compound 10 µM) 27.4% and 15.8%. The half-inhibitory concentration (IC50) (curve of compound) is 6.99 µM and 6.18 µM.

Turning to `CC1(C)CCC(CN2CCN(c3ccc(C(=O)NS(=O)(=O)c4ccc(NCC5CCOCC5)c([N+](=O)[O-])c4)c(Oc4cnc5[nH]ccc5c4)c3)CC2)=C(c2ccc(Cl)cc2)C1` + CC(C)NCC(C(=O)N1CCN(c2ncnc3c2C(C)CC3O)CC1)c1ccc(Cl)cc1, the IC50 was 6.75 µM under setting [1]; 5.54 µM under setting [2]; 3.81 µM under setting [3]; 3.55 µM under setting [4]; less than 0.0316 µM under setting [5]. The viability, T/C is, setting by setting: under setting [6], 101%; under setting [7], 90.5%; under setting [8], 87.8%; under setting [9], 104%; (second compound 0.1 µM, first compound 3.16 µM) 94.1%; (second compound 0.1 µM, first compound 10 µM) 27.1%. Besides, the viability, T/C runs as follows: under setting [10], 87.4%; under setting [11], 76.7%; under setting [12], 87.3%; under setting [13], 76.1%; (second compound 0.316 µM, first compound 3.16 µM) 75%; (second compound 0.316 µM, first compound 10 µM) 24%. In addition, the viability, T/C by setting is: under setting [14], 71.6%; under setting [15], 76%; under setting [16], 66.2%; under setting [17], 64.8%; (second compound 1 µM, first compound 3.16 µM) 58.1%; (second compound 1 µM, first compound 10 µM) 18.2%. Besides, the viability, T/C is 57.2% under setting [18]; 62.3% under setting [19]; 58.4% under setting [20]; 51.7% under setting [21]; 54.4% (second compound 3.16 µM, first compound 3.16 µM); 17.7% (second compound 3.16 µM, first compound 10 µM). Besides, the viability, T/C was 47.7% under setting [22]; 44.6% under setting [23]; 44.5% under setting [24]; 48.1% under setting [25]; 42.7% (second compound 10 µM, first compound 3.16 µM); 4.35% (second compound 10 µM, first compound 10 µM).

As to `COc1c(OCCCN2CCOCC2)ccc2c3n(c(=NC(=O)c4cnc(N)nc4)nc12)CCN3`, the viability, T/C was 72.5% and 103% (compound 0.00316 µM); 52.7% and 57.6% (compound 0.01 µM); 41.7% and 46.2% (compound 0.0316 µM); 32.3% and 38.2% (compound 0.1 µM); 11% and 11.5% (compound 0.316 µM); 2.47% and 3.86% (compound 1 µM). Moreover, the IC50 (curve of compound) is 0.0163 µM and 0.0244 µM.
